In the NIST ThermoML archive (doi:10.1007/s10765-014-1598-0):
± gives the expanded uncertainty stated by the source.

Columns and labels:
[1] = wn = mass fraction of the nth substance listed; conditions: Liquid, Parallel plate method
[2] = Liquid, Parallel plate method

O=P(O)(O)O [phosphoric acid] + O
[1]
Conditions | thermal conductivity [W/m/K]
291.42 K, 5000 kPa, w1 = 0.08 | 0.568 ± 0.024
291.7 K, 15000 kPa, w1 = 0.08 | 0.578 ± 0.024
292.71 K, 101 kPa, w1 = 0.5 | 0.482 ± 0.02
293.15 K, 15000 kPa, w1 = 0.5 | 0.498 ± 0.021
293.16 K, 101 kPa, w1 = 0.08 | 0.566 ± 0.024
293.26 K, 5000 kPa, w1 = 0.5 | 0.489 ± 0.02
294.15 K, 5000 kPa, w1 = 0.155 | 0.545 ± 0.023
294.23 K, 15000 kPa, w1 = 0.155 | 0.556 ± 0.023
294.32 K, 101 kPa, w1 = 0.155 | 0.529 ± 0.022
298.48 K, 101 kPa, w1 = 0.08 | 0.575 ± 0.024
300.86 K, 101 kPa, w1 = 0.5 | 0.493 ± 0.021
303.03 K, 101 kPa, w1 = 0.155 | 0.545 ± 0.023
310.72 K, 5000 kPa, w1 = 0.155 | 0.568 ± 0.024
310.89 K, 15000 kPa, w1 = 0.155 | 0.58 ± 0.024
312.81 K, 15000 kPa, w1 = 0.5 | 0.525 ± 0.022
313.19 K, 5000 kPa, w1 = 0.5 | 0.516 ± 0.022
313.91 K, 101 kPa, w1 = 0.08 | 0.597 ± 0.025
313.94 K, 101 kPa, w1 = 0.155 | 0.561 ± 0.023
314.07 K, 101 kPa, w1 = 0.155 | 0.563 ± 0.024
315.13 K, 101 kPa, w1 = 0.5 | 0.514 ± 0.021
315.16 K, 5000 kPa, w1 = 0.08 | 0.609 ± 0.025
315.18 K, 15000 kPa, w1 = 0.08 | 0.613 ± 0.026
320.54 K, 101 kPa, w1 = 0.08 | 0.607 ± 0.025
321.54 K, 101 kPa, w1 = 0.155 | 0.571 ± 0.024
329.59 K, 101 kPa, w1 = 0.5 | 0.53 ± 0.022
330.24 K, 15000 kPa, w1 = 0.5 | 0.545 ± 0.023
330.25 K, 101 kPa, w1 = 0.155 | 0.582 ± 0.024
330.43 K, 5000 kPa, w1 = 0.5 | 0.54 ± 0.023
332.5 K, 15000 kPa, w1 = 0.155 | 0.605 ± 0.025
332.65 K, 5000 kPa, w1 = 0.155 | 0.592 ± 0.025
334.07 K, 5000 kPa, w1 = 0.08 | 0.633 ± 0.026
334.29 K, 15000 kPa, w1 = 0.08 | 0.641 ± 0.027
339.46 K, 101 kPa, w1 = 0.5 | 0.538 ± 0.022
342.35 K, 101 kPa, w1 = 0.155 | 0.598 ± 0.025
342.83 K, 101 kPa, w1 = 0.08 | 0.63 ± 0.026
343.21 K, 101 kPa, w1 = 0.155 | 0.599 ± 0.025
345.9 K, 101 kPa, w1 = 0.08 | 0.634 ± 0.026
350.37 K, 15000 kPa, w1 = 0.08 | 0.654 ± 0.027
350.49 K, 5000 kPa, w1 = 0.08 | 0.646 ± 0.027
352.63 K, 15000 kPa, w1 = 0.5 | 0.566 ± 0.024
352.82 K, 5000 kPa, w1 = 0.5 | 0.569 ± 0.024
352.88 K, 101 kPa, w1 = 0.155 | 0.607 ± 0.025
353.04 K, 5000 kPa, w1 = 0.155 | 0.615 ± 0.026
353.17 K, 15000 kPa, w1 = 0.155 | 0.622 ± 0.026
354.94 K, 101 kPa, w1 = 0.5 | 0.55 ± 0.023
355.76 K, 101 kPa, w1 = 0.08 | 0.642 ± 0.027
360.16 K, 101 kPa, w1 = 0.155 | 0.613 ± 0.026
360.21 K, 101 kPa, w1 = 0.155 | 0.614 ± 0.026
363.17 K, 5000 kPa, w1 = 0.5 | 0.564 ± 0.024
363.2 K, 15000 kPa, w1 = 0.5 | 0.572 ± 0.024
364.06 K, 15000 kPa, w1 = 0.155 | 0.632 ± 0.026
364.17 K, 5000 kPa, w1 = 0.155 | 0.626 ± 0.026
364.98 K, 15000 kPa, w1 = 0.08 | 0.666 ± 0.028
365.14 K, 5000 kPa, w1 = 0.08 | 0.667 ± 0.028
369.33 K, 101 kPa, w1 = 0.08 | 0.65 ± 0.027
370.07 K, 101 kPa, w1 = 0.155 | 0.618 ± 0.026
372.13 K, 101 kPa, w1 = 0.5 | 0.56 ± 0.023
380.77 K, 15000 kPa, w1 = 0.08 | 0.673 ± 0.028
380.93 K, 5000 kPa, w1 = 0.08 | 0.669 ± 0.028
383.41 K, 15000 kPa, w1 = 0.5 | 0.58 ± 0.024
383.52 K, 5000 kPa, w1 = 0.5 | 0.575 ± 0.024
385.14 K, 15000 kPa, w1 = 0.155 | 0.64 ± 0.027
385.31 K, 5000 kPa, w1 = 0.155 | 0.636 ± 0.027
397.89 K, 5000 kPa, w1 = 0.155 | 0.635 ± 0.026
399.66 K, 15000 kPa, w1 = 0.5 | 0.583 ± 0.024
399.84 K, 15000 kPa, w1 = 0.08 | 0.677 ± 0.028
400.05 K, 5000 kPa, w1 = 0.08 | 0.672 ± 0.028
400.07 K, 15000 kPa, w1 = 0.155 | 0.642 ± 0.027
400.18 K, 5000 kPa, w1 = 0.5 | 0.58 ± 0.024

O [water]
[2]
Conditions | thermal conductivity [W/m/K]
292.04 K, 101 kPa | 0.596 ± 0.025
292.37 K, 5000 kPa | 0.599 ± 0.025
292.41 K, 15000 kPa | 0.606 ± 0.025
301.85 K, 101 kPa | 0.612 ± 0.026
308.34 K, 101 kPa | 0.622 ± 0.026
313.16 K, 5000 kPa | 0.634 ± 0.026
313.35 K, 15000 kPa | 0.636 ± 0.027
318.33 K, 101 kPa | 0.634 ± 0.026
327.48 K, 101 kPa | 0.645 ± 0.027
332.62 K, 15000 kPa | 0.657 ± 0.027
332.85 K, 5000 kPa | 0.656 ± 0.027
337.32 K, 101 kPa | 0.655 ± 0.027
346.93 K, 101 kPa | 0.662 ± 0.028
351.91 K, 5000 kPa | 0.671 ± 0.028
353.17 K, 15000 kPa | 0.673 ± 0.028
356.69 K, 101 kPa | 0.668 ± 0.028
364.08 K, 5000 kPa | 0.679 ± 0.028
364.53 K, 15000 kPa | 0.682 ± 0.028
371.79 K, 101 kPa | 0.677 ± 0.028
382.36 K, 15000 kPa | 0.688 ± 0.029
382.41 K, 5000 kPa | 0.686 ± 0.029
398.77 K, 5000 kPa | 0.688 ± 0.029
399.64 K, 15000 kPa | 0.691 ± 0.029

O [water] + O=P(O)(O)O
[1], w2 = 0
Conditions | thermal conductivity [W/m/K]
292.04 K, 101 kPa | 0.596 ± 0.025
292.37 K, 5000 kPa | 0.599 ± 0.025
292.41 K, 15000 kPa | 0.606 ± 0.025
301.85 K, 101 kPa | 0.612 ± 0.026
308.34 K, 101 kPa | 0.622 ± 0.026
313.16 K, 5000 kPa | 0.634 ± 0.026
313.35 K, 15000 kPa | 0.636 ± 0.027
318.33 K, 101 kPa | 0.634 ± 0.026
327.48 K, 101 kPa | 0.645 ± 0.027
332.62 K, 15000 kPa | 0.657 ± 0.027
332.85 K, 5000 kPa | 0.656 ± 0.027
337.32 K, 101 kPa | 0.655 ± 0.027
346.93 K, 101 kPa | 0.662 ± 0.028
351.91 K, 5000 kPa | 0.671 ± 0.028
353.17 K, 15000 kPa | 0.673 ± 0.028
356.69 K, 101 kPa | 0.668 ± 0.028
364.08 K, 5000 kPa | 0.679 ± 0.028
364.53 K, 15000 kPa | 0.682 ± 0.028
371.79 K, 101 kPa | 0.677 ± 0.028
382.36 K, 15000 kPa | 0.688 ± 0.029
382.41 K, 5000 kPa | 0.686 ± 0.029
398.77 K, 5000 kPa | 0.688 ± 0.029
399.64 K, 15000 kPa | 0.691 ± 0.029
